According to US6054137A, “Promoting epidermal renewal with phloroglucinol” (Societe L'Oreal S.A., priority 1997, dated 2000):

System: normal human keratinocytes
Assay: Proliferation of normal human keratinocytes cultured as a monolayer (BrdU test; score versus epinephrine)
Format: cell-based
Settings: at 10^-5 M; keratinocyte monolayer; 72 h
Procedure: Study of the effect of 1,3,5-trimethoxybenzene on the proliferation of normal human keratinocytes cultured as a monolayer:
The products are tested on 2nd passage normal human keratinocytes cultured in KGM medium (serum-free defined medium sold by the company Clonetics). The range of concentrations is between 10^-4 M and 10^-7 M. The products are tested twice on 2 different plates.
250 ng/ml epinephrine is employed as positive control of the proliferation.
The products are dissolved in dimethyl sulphoxide (DMSO). A 1×10^-2 M mother solution is prepared in DMSO. The following dilutions are carried out in KGM.
The keratinocytes are seeded at 6000 cells/cm^2. After culturing for 24 h, the product is applied to the cells for 72 h. The medium is replaced after treatment for 48 h.
BrdU kit (Boehringer Mannheim).
On the second day of treatment, a thymidine analogue (BrdU) is added to the culture medium overnight. This analogue makes it possible to label the cells during DNA synthesis. On the third day of treatment, the cells which have incorporated BrdU are identified with an anti-BrdU antibody.
For each product, the score (see table) is attributed as a function of the result obtained with respect to epinephrine (positive control for the proliferation).

`COc1cc(OC)cc(OC)c1` [1,3,5-Trimethoxybenzene, 1,3,5-trimethoxybenzene] was tested, and the Proliferative effect was “induces proliferation of the keratinocytes”.
